Measured values taken from patent US20260130921A1, “TREATMENT OF VIRAL INFECTIONS WITH COMBINATION OF PIKFYVE KINASE INHIBITORS AND TMPRSS-2 INHIBITORS” (AcuraStem Incorporated, priority 2020, published 2026).

Target: PIKFYVE (Homo sapiens, UniProt Q9Y2I7)
Assay: PIKFYVE assay (luciferase ADP-Glo kinase assay, Promega)
Format: biochemical
Conditions: Table 2
Method: The activity of Compounds 1-20 was measured using a PIKFYVE assay (luciferase ADP-Glo kinase assay available from Promega Corp. of Madison, WI).
The activity of Compounds 39-90 was also measured using a PIKFYVE assay (luciferase ADP-Glo kinase assay available from Promega Corp. of Madison, WI).

Chain of PIKFYVE (Q9Y2I7 whole entry): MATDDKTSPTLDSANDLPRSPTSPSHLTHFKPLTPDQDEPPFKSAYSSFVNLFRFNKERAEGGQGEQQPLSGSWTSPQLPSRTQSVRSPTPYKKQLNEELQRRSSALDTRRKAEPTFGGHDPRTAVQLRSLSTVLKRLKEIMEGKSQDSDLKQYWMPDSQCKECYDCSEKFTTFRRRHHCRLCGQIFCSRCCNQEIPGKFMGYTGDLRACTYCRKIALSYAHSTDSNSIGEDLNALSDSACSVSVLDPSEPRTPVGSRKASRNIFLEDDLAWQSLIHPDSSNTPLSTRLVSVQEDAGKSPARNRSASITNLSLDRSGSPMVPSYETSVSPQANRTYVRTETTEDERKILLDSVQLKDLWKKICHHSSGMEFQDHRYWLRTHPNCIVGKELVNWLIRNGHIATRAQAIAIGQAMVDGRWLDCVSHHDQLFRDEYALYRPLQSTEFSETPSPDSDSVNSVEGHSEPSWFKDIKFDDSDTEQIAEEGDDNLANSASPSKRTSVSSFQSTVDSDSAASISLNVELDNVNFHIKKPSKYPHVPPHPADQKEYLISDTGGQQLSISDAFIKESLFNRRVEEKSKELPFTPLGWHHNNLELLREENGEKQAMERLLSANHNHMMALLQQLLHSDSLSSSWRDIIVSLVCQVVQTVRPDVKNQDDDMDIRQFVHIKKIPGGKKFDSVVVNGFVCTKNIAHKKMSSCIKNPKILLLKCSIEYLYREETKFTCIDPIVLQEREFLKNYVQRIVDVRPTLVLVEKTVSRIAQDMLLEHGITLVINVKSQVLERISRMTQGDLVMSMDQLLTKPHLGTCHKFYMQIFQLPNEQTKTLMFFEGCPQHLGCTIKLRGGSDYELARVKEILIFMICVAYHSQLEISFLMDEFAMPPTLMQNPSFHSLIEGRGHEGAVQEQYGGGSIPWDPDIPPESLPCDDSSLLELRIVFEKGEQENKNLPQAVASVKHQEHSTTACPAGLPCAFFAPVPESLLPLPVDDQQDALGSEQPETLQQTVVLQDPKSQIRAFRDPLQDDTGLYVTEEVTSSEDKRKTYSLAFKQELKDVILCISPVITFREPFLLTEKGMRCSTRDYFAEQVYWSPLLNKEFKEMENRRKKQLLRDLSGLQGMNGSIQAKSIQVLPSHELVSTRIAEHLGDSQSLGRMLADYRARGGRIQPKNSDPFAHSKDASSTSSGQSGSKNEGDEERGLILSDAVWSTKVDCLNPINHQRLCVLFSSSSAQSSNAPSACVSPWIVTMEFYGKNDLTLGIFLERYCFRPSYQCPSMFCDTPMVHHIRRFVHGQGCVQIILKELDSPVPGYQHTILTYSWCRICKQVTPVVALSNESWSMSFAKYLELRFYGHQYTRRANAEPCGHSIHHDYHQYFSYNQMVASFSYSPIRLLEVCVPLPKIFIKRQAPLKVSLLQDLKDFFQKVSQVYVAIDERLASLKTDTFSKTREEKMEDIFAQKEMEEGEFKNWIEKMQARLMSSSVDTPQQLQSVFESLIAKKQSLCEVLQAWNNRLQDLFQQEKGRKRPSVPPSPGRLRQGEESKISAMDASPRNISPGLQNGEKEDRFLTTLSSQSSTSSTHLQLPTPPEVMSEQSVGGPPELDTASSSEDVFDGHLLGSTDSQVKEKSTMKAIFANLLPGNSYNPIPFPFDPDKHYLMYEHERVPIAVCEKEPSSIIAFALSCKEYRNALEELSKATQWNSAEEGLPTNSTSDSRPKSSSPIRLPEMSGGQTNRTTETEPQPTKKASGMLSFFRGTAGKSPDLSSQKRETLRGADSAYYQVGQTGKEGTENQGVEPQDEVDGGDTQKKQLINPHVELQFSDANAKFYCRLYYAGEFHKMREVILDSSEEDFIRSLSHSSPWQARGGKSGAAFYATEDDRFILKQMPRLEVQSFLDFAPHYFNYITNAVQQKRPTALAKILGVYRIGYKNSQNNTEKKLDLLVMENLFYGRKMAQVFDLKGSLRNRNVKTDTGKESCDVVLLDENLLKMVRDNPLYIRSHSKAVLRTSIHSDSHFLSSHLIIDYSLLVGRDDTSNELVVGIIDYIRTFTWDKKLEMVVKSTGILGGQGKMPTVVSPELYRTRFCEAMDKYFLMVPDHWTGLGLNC

Row | Structure (SMILES) | IC50 [nM]
1 | c1ccc(-c2cn(-c3cc(N4CCOCC4)nc(OCCc4ccccn4)n3)cn2)cc1 [Compound 39] | < 10000
2 | Clc1ccc(-c2ccn(-c3cc(N4CCOCC4)nc(OCCc4ccccn4)n3)n2)cc1 [Compound 40] | < 500
3 | Fc1ccc(-c2cnn(-c3cc(N4CC[C@H]5OCC[C@H]54)nc(CCCc4ccccn4)n3)c2)cc1 [Compound 41] | < 10000
4 | Cc1cccc(-c2ccn(-c3cc(N4CCOCC4)nc(Cc4ccccc4)n3)n2)c1 [Compound 42] | < 500
5 | c1cc(-c2cc(N3CCOCC3)nc(OCC3CCCO3)n2)n[nH]1 (stereo not shown) [Compound 45] | < 500
6 | Cc1cccc(-c2ccn(-c3nc(NCCc4ccccn4)cc(N4CCOCC4)n3)n2)c1 [Compound 46] | < 50
7 | Cc1cccc(-c2ccn(-c3nc(NCCc4cnccn4)cc(N4CCOCC4)n3)n2)c1 [Compound 47] | < 50
8 | Cc1cccc(-c2ccn(-c3cc(N4CC[C@H]5OCC[C@H]54)nc(C(O)CO)n3)n2)c1 (stereo partly shown) [Compound 48] | < 500
9 | COCC(O)c1nc(N2CCOCC2)cc(-n2ccc(-c3cccc(C)c3)n2)n1 (stereo not shown) [Compound 49] | < 50
10 | CC(C)(C)c1ccn(-c2cc(N3CCOCC3)nc(OCC(O)CO)n2)n1 (stereo not shown) [Compound 51] | < 10000
11 | OCC(O)COc1nc(N2CCOCC2)cc(-n2cc3ccccc3n2)n1 (stereo not shown) [Compound 52] | < 500

Further lines, results first:

Row | IC50 [nM] | Structure (SMILES)
12 | < 500 | OCC(O)COc1nc(N2CCOCC2)cc(-n2ncc3ccccc32)n1 (stereo not shown) [Compound 53]
13 | < 5 | Cc1cccc(-c2ccn(-c3cc(N4CCOCC4)nc(OC[C@@H](O)c4ccccc4)n3)n2)c1 [Compound 57]
14 | < 5 | Cc1cccc(-c2ccn(-c3cc(N4CCOCC4)nc(OC[C@H](O)c4ccccc4)n3)n2)c1 [Compound 58]
15 | < 50 | COc1nc(N2CCOCC2)cc(-n2ccc(-c3cccc(C)c3)n2)n1 [Compound 59]
16 | < 500 | Cc1cccc(-c2ccn(-c3cc(N4CCOCC4)ncn3)n2)c1 [Compound 60]
17 | < 50 | Cc1cccc(-c2ccn(-c3cc(N4CCOCC4)nc(N4CCCC4=O)n3)n2)c1 [Compound 61]
18 | < 500 | Cc1cn(-c2cc(N3CCOCC3)nc(OCCc3cnn(C)c3)n2)nc1-c1ccccc1 [Compound 63]
19 | < 50 | COCc1nc(N2CCOCC2)cc(-n2ccc(-c3ccccc3)n2)n1 [Compound 69]
20 | < 50 | CCOC(=O)c1ccn(-c2cc(N3CCOCC3)nc(OCCc3ccn(C)n3)n2)n1 [Compound 70]
21 | < 50 | CN(C)Cc1cc(-c2ccccc2)nn1-c1cc(N2CCOCC2)nc(OCCc2cnn(C)c2)n1 [Compound 75]
22 | < 50 | COCc1cc(-c2ccccc2)n(-c2cc(N3CCOCC3)nc(OCCc3cnn(C)c3)n2)n1 [Compound 77]
23 | < 50 | COC(c1ccccc1)c1nc(N2CCOCC2)cc(-n2ccc(-c3ccccc3)n2)n1 (stereo not shown) [Compound 78]
24 | < 50 | Cc1cccc(-c2ccn(-c3cc(N4CCOCC4)nc(C(F)(F)F)n3)n2)c1 [Compound 82]
25 | < 500 | COc1nc(N2CCOCC2)c(C)c(-n2ccc(-c3cccc(C)c3)n2)n1 [Compound 83]
26 | < 50 | OCc1nc(N2CCOCC2)cc(-n2ccc(-c3ccccc3)n2)n1 [Compound 84]
27 | < 500 | CNc1nc(N2CCOCC2)cc(-n2nc(-c3ccccc3)cc2C)n1 [Compound 85]
28 | < 500 | COc1cc(N2CCOCC2)nc(-n2ccc(-c3cccc(C)c3)n2)n1 [Compound 87]
